Assay results published in patent US20120059052A1, “PRENYLFLAVONOID FORMULATIONS” (BIOACTIVES, INC., priority 2005, published 2012).

What was measured:
[1] = molecular target: T1, Cyp1A1 (Homo sapiens, UniProt P04798); conditions: cDNA-expressed human enzyme; cited from earlier work
T1 sequence (P04798 1-512): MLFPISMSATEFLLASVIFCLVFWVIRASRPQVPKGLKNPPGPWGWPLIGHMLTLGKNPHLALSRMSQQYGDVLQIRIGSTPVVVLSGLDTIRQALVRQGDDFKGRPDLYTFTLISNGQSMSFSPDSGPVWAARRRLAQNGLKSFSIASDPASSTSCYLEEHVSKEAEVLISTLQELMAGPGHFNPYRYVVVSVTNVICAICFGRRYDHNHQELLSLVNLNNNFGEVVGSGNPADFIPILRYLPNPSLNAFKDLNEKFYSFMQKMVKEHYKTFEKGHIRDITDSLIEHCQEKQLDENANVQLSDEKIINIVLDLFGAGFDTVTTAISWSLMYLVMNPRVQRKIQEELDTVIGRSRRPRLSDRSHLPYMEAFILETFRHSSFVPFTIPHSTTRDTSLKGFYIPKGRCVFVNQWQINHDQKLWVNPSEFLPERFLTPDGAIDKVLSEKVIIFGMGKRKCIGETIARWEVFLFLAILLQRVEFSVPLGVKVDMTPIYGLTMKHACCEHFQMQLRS

[2] = molecular target: T2, Cyp1B 1 (Homo sapiens, UniProt Q16678); conditions: cDNA-expressed human enzyme; cited from earlier work
T2 sequence (Q16678 1-543): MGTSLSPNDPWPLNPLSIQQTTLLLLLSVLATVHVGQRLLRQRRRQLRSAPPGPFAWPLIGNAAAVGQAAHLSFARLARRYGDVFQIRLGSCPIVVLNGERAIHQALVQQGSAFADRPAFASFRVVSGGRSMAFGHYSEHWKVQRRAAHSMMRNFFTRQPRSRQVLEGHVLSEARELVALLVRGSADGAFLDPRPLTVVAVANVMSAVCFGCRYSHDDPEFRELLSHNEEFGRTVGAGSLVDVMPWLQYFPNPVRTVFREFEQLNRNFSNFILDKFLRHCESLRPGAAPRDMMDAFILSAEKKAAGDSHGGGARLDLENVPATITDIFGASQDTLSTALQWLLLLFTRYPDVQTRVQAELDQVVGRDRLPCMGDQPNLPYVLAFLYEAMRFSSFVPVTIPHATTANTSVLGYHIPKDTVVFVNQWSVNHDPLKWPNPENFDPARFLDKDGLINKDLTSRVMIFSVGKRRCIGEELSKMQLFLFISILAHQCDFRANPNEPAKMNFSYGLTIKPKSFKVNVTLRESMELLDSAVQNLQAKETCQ

[3] = molecular target: T3, Cyp1A2 (Homo sapiens, UniProt P05177); conditions: cDNA-expressed human enzyme; cited from earlier work
T3 sequence (P05177 1-516): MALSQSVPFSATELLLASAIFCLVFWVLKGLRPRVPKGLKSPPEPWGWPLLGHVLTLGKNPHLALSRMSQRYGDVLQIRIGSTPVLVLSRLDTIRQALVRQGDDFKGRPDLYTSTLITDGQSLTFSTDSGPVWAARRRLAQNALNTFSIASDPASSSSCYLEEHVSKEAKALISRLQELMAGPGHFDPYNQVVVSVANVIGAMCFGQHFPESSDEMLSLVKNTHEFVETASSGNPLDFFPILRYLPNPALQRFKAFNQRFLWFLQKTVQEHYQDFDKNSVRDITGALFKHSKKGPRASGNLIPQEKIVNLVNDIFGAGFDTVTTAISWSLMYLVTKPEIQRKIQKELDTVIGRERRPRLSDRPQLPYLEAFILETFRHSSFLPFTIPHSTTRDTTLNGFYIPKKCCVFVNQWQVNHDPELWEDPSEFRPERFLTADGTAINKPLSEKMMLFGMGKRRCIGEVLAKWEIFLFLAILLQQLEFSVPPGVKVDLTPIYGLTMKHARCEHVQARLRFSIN

[4] = test system: endothelial cells; conditions: endothelial cells invading collagen gel, capillary-like tubes; cited from earlier work
[5] = molecular target: T4, HMG-CoA reductase (Homo sapiens, UniProt P04035); assay: HMG-CoA reductase assay in isolated liver microsomes; assay type: biochemical
T4 construct: from tissue; host or cells: liver microsomes
T4 sequence (P04035 1-888): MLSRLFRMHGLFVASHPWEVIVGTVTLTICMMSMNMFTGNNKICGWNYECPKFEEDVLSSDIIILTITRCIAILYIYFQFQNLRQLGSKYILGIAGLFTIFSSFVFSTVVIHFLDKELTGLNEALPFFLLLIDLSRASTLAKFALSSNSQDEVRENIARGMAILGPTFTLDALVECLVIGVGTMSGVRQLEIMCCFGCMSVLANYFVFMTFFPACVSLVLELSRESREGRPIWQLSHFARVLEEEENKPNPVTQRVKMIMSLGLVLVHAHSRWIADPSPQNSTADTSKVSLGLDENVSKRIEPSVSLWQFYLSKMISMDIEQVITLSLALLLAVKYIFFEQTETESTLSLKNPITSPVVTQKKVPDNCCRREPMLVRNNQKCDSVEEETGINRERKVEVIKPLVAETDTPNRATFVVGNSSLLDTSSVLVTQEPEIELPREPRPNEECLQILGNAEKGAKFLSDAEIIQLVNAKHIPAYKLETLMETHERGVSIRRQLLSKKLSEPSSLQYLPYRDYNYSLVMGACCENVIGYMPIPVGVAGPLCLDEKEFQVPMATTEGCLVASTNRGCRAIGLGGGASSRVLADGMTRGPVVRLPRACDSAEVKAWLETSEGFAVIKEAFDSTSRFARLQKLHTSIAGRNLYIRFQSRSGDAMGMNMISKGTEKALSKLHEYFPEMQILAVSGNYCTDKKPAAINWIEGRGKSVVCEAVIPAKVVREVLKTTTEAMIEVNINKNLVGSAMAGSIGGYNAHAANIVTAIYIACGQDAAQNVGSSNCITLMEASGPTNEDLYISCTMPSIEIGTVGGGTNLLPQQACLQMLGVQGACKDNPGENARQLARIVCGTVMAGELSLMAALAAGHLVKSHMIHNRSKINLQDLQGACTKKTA
Description: HMG-CoA reductase assays were performed in which increasing concentrations of xanthohumol (1 μM to 100 μM) were added to isolated liver microsomes. Xanthohumol had no effect on HMG-CoA reductase activity. As a positive control, atorvastatin (10 nM and 1 μM) was tested in the same assay, which inhibited reductase activity by 58% and 87% respectively. The protocol followed was as published in Telford et al. ATVB 2002; 22: 1884-1891.

[6] = test system: HepG2 cells; assay: Incorporation of 14C-acetic acid into cholesterol in HepG2 cells; assay type: cell-based
Description: The incorporation of ^14C-acetic acid into cholesterol was examined in HepG2 cells. […] The IC50 was approximately 20 μM. In the same HepG2 cell assay system, atorvastatin (10 nM and 1 μM) inhibited acetate incorporation into cholesterol by 20% and 80% respectively.

[7] = test system: Caco-2 cell monolayers; assay: Permeability across Caco-2 cell monolayers; assay type: in vitro ADME
Description: Percent Recovery=100×((Vr×Cr^final)+(Vd×Cd^final))/(Vd×C0)
• dCr/dt is the slope of the cumulative concentration in the receiver compartment versus time in μMs^−1. • Vr is the volume of the receiver compartment in cm^3. • Vd is the volume of the donor compartment in cm^3. • A is the area of the cell-free insert (1.13 cm^2 for 12-well Transwell). • Cr^final is the cumulative receiver concentration in μM at the end of the incubation period. • Cd^final is the concentration of the donor in μM at the end of the incubation period. • C0 is the initial concentration of the dosing solution in μM.
Each determination was performed in duplicate.

[8] = molecular target: T5, constitutive COX-1 (Ovis aries, UniProt P05979); conditions: read-out: IC50, inhibition of COX-1; cited from earlier work
T5 sequence (P05979 25-600): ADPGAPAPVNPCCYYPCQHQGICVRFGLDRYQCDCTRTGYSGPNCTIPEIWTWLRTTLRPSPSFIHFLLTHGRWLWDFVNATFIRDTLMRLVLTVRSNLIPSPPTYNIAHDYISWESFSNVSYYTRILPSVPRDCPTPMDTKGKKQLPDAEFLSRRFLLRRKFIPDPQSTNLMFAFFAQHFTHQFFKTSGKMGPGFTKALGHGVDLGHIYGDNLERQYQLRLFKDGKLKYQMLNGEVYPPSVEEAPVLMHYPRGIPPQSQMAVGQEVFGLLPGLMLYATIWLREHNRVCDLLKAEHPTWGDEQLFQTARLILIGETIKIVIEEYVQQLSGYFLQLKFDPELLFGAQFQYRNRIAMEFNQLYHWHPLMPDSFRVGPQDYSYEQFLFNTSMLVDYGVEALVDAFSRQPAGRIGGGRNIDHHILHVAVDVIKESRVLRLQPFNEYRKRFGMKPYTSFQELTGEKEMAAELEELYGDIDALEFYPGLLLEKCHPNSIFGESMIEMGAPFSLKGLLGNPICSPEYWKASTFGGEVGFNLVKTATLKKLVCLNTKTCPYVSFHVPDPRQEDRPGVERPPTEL

[9] = molecular target: T6, inducible COX-2 (Homo sapiens, UniProt P35354); conditions: read-out: IC50, inhibition of COX-2; cited from earlier work
T6 sequence (P35354 18-604): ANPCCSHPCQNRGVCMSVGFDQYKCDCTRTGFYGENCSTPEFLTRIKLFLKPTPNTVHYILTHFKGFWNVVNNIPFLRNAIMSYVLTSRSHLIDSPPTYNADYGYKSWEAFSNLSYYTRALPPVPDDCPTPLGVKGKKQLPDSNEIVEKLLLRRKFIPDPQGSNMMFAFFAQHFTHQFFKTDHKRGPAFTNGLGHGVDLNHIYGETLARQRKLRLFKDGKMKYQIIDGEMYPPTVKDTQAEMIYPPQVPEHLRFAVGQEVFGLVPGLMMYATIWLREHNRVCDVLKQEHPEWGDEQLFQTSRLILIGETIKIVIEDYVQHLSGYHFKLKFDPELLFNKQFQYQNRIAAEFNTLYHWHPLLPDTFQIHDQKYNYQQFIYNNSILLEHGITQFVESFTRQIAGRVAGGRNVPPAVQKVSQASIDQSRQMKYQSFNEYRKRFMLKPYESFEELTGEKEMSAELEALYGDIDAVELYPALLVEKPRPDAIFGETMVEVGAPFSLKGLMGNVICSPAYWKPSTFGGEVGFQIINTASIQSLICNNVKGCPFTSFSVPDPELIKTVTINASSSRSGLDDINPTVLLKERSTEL

[10] = cited from earlier work
[11] = oral doses, animal; cited from earlier work
[12] = test system: Caco-2 cell monolayers; assay: Caco-2 plate certification with control compounds; assay type: in vitro ADME; conditions: TW12, passage 63, age 22 days
Description: To test the permeability of xanthohumol across Caco-2 cell monolayers, Caco-2 cell monolayers were grown to confluence on collagen-coated, microporous, polycarbonate membranes in 12-well Costar Transwell® plates. Details of the plates and their certification are shown below in Table 3. The test article was also the aqueous xanthohumol formulation, and the dosing concentration was 2 μM in the assay buffer (HBSSg) as in the previous example. Cell monolayers were dosed on the apical side (A-to-B) or basolateral side (B-to-A) and incubated at 37° C. with 5% CO2 in a humidified incubator. Samples were taken from the donor chamber at 120 minutes, and samples from the receiver chamber were collected at 60 and 120 minutes. Each determination was performed in duplicate. Lucifer yellow permeability was also measured for each monolayer after being subjected to the test article to ensure no damage was inflicted to the cell monolayers during the permeability experiment. All samples were assayed for Xanthohumol by LC/MS/MS using electrospray ionization. The apparent permeability (Papp), and percent recovery were calculated as described above.

[13] = human, Caco-2, 120 min, 2 μM, pH 7.4

Q: Which “Inhibition of Cyp1A1” value [1] does the source give for `CC(C)=CCc1c(O)cc(O)c2c1O[C@H](c1ccc(O)cc1)CC2=O` [8-prenylnaringenin] here?
A: strongly inhibit

Q: What about the “Inhibition of Cyp1B1” value [2] of the same compound?
A: strongly inhibit

Q: And the “Inhibition of Cyp1A2” value [3]?
A: strongly inhibit

Q: And the “Effect on angiogenesis in vitro” value [4]?
A: inhibits angiogenesis

Q: Which results are given for `COc1cc(O)c(CC=C(C)C)c(O)c1C(=O)/C=C/c1ccc(O)cc1` [Xanthohumol, xanthohumol]?
A: Effect on HMG-CoA reductase activity ([5]; 1 μM to 100 μM, isolated liver microsomes): no effect; Cholesterol synthesis inhibition ([6]; 0.5 μM to 100 μM): inhibited in a dose-responsive manner; IC50 ([6]; Homo sapiens, read-out: IC50, cholesterol synthesis): ~20 µM; Effect on incorporation of 14C-acetic acid into cholesterol ([6]; concentrations below 500 nM): No affect; Significant Efflux ([7]; Caco-2): No; Papp, Average [7, 13]: 1.77 10^−6 cm/s; Papp, Rep. 1 [7, 13]: 0.94 10^−6 cm/s; IC50 [8]: 17 µM; IC50 [9]: 42 µM; Inhibition of Cyp1A1 [1]: strongly inhibit; Inhibition of Cyp1B1 [2]: strongly inhibit; Inhibition of Cyp1A2 [3]: strongly inhibit; Solubility in water [10]: virtually insoluble; Bioavailability [11]: very low bioavailability

Q: With `CC(C)c1c(C(=O)Nc2ccccc2)c(-c2ccccc2)c(-c2ccc(F)cc2)n1CC[C@@H](O)C[C@@H](O)CC(=O)O` [atorvastatin, reference compound] as the compound, how does the inhibition at 0.01 µM ([5]; 10 nM) read?
A: 58%

Q: What about the inhibition at 1 µM ([5]; 1 μM) of the same compound?
A: 87%

Q: What about the inhibition at 0.01 µM ([6]; Homo sapiens, 10 nM, read-out: Inhibition of acetate incorporation into cholesterol) of the same compound?
A: 20%

Q: And the inhibition at 1 µM ([6]; Homo sapiens, 1 μM, read-out: Inhibition of acetate incorporation into cholesterol)?
A: 80%

Q: With `COc1cc(O)c(CC=C(C)C)c2c1C(=O)CC(c1ccc(O)cc1)O2` (stereo not drawn) [isoxanthohumol] as the compound, how does the “Inhibition of Cyp1A1” value [1] read?
A: strongly inhibit

Q: And the “Inhibition of Cyp1B1” value [2]?
A: strongly inhibit

Q: What about the “Inhibition of Cyp1A2” value [3] of the same compound?
A: strongly inhibit

Q: For Lucifer Yellow [reference compound], which “Lucifer yellow Papp, post-experiment integrity control” value ([7]; all monolayers, after exposure to test article) is on record?
A: < 0.8 ×10⁻⁶ cm/s

Q: And the Papp [12]?
A: 0.13 ×10⁻⁶ cm/s
